# Tested on: mouse primary astrocytes
# Assay: Concentration-dependent cellular uptake into mouse primary astrocytes
# Type: cell-based
# Conditions: 5–400 μM, 30 min, 37 °C
# Protocol: The mouse primary astrocytes were isolated from neonatal pups (P0-2) of wild-type mice (C57BL/6JOlaHsd) as previously described, in compliance with the European Commission Directive 2010/63/EU and approved by the Institutional Animal Care and Use Committee of the University of Eastern Finland (Animal Usage Plan numbers: EKS-006-2019).[37] Neonatal pups were decapitated, and their brains were collected in an ice-cold HBSS buffer. After tissue dissociation and washing, cells were plated on poly-L-lysine-coated flasks and cultured in DMEM supplemented with FBS, L-glutamine, and penicillin/streptomycin (50 μg/mL) for 24 h. Debris and dead cells were removed by DPBS rinsing. After 7 days, microglial cells were removed, and the remaining astrocytic monolayer was collected by trypsinization using 0.05% trypsin-ethylenediaminetetraacetic acid (EDTA) (Gibco), pelleted, and stored at −80 °C for subsequent analysis. For the cell uptake experiments, the astrocytes were seeded on 24-well plates with a density of 10^4 cells/well 3 days before the experiments.
# After removal of the culture medium, U-87MG human glioma cells and mouse primary astrocytes were carefully washed with prewarmed Hank’s balanced salt solution (HBSS) containing 125.0 mM NaCl (or choline chloride in Na^+ free conditions), 4.8 mM KCl, 1.2 mM MgSO4, 1.2 mM KH2PO4, 1.3 mM CaCl2, 5.6 mM glucose, and 25.0 mM 4-(2-hydroxyethyl)piperazine-1-ethanesulfonic acid (HEPES) with the pH adjusted to either 7.4 or pH 8.5 with 1 M NaOH (or KOH in sodium-free conditions). In the experiments at lower pH (4.5–6.5), 25.0 mM HEPES was replaced by 2-(N-morpholino) ethanesulfonic acid (MES), and the pH was adjusted to 4.5, 5.5, and 6.5 by 1.0 M NaOH. Preincubation was done with 500 μL of prewarmed HBSS at 37 °C for 10 min before adding the substrate for the uptake experiments. The functionality of OATP1C1 in human glioma U-87MG cells was studied with a known substrate (L-thyroxine, T4) and of oatp1a4, 1a5, and 1a6 in mouse primary astrocytes with [6,7-^3H(N)]-estrone-3-sulfate (ES) by incubating the uptake solution (250 μL in HBSS) consisting of 5–400 μM of the substrate at 37 °C for 30 min. After incubation, the uptake was stopped by adding 500 μL of ice-cold HBSS, and the cells were washed two times with ice-cold HBSS (2 × 500 μL). The cells were then lysed with 500 μL of 0.1 M NaOH (60 min), the lysate was neutralized, and the protein was precipitated with acidic acetonitrile (ACN with 4.8% formic acid). The supernatants were analyzed by the high-performance liquid chromatography (HPLC) methods described below (T4) or by using a liquid scintillation counter (MicroBeta2 counter, PerkinElmer, Waltham, MA) (ES). The concentrations of T4 and ES were calculated from the spiked standard curve and normalized with the protein concentrations. The protein concentrations on each plate were determined as a mean of three samples by Bio-Rad Protein Assay, based on the Bradford dye-binding method, using bovine serum albumin (BSA) as a standard protein and measuring the absorbance (595 nm) by a multiplate reader (EnVision, PerkinElmer, Inc., Waltham, MA). The OATP-mediated uptake was confirmed by changing the pH of the uptake buffer in the absence of sodium ions, and in the case of OATP1C1 in human U-87MG cells, the uptake of T4 (100 μM) was studied in the presence of competing OATP1C1-ligands, diclofenac and flufenamic acid (100 μM), and in the case of oatp1a4/1a5/1a6 in mouse primary astrocytes, the uptake of ES (100 μM) was studied in the presence of competing OATO1A2-ligand, naringin (100 μM).
# Cellular uptake of prodrugs 1–8 was studied as described for L-thyroxine above by adding compounds at a concentration of 5–400 μM in prewarmed HBSS buffer (250 μL) on the cell layer and incubating at 37 °C for 30 min (uptake was linear with all compounds up to 30 min). Subsequently, the cells were washed three times with ice-cold HBSS and lysed with 500 μL of 0.1 M NaOH (60 min). […]
SMILES,Km [µM],"Vmax, cellular uptake, astrocytes [nmol/min/mg]"
"CC(C(=O)Oc1c(I)cc(Oc2c(I)cc(C[C@H](N)C(=O)O)cc2I)cc1I)c1cccc(C(=O)c2ccccc2)c1 (mixture of isomers) [Prodrug 2, (2S)-2-Amino-3-(4-(4-((2-(3-benzoylphenyl)propanoyl)oxy)-3,5-diiodophenoxy)-3,5-diiodophenyl)propanoic acid]",123 ± 21,5.5 ± 0.4
"N[C@@H](Cc1cc(I)c(Oc2cc(I)c(OC(=O)c3ccccc3O)c(I)c2)c(I)c1)C(=O)O [Prodrug 4, (S)-2-Amino-3-(4-(4-((2-hydroxybenzoyl)oxy)-3,5-diiodophenoxy)-3,5-diiodophenyl)propanoic acid]",86 ± 32,5.5 ± 0.8
"N[C@@H](Cc1cc(I)c(OC(=O)c2ccccc2O)c(I)c1)C(=O)O [Prodrug 3, (S)-2-Amino-3-(4-((2-hydroxybenzoyl)oxy)-3,5-diiodophenyl)propanoic acid]",685 ± 97,13.0 ± 1.3
"CC(C(=O)Oc1c(I)cc(C[C@H](N)C(=O)O)cc1I)c1ccc(-c2ccccc2)c(F)c1 (mixture of isomers) [Prodrug 7, (2S)-2-Amino-3-(4-((2-(2-fluoro-[1,1′-biphenyl]-4-yl)propanoyl)oxy)-3,5-diiodophenyl)propanoic acid]",360 ± 61,10.3 ± 1.1
"CC(C(=O)Oc1c(I)cc(Oc2c(I)cc(C[C@H](N)C(=O)O)cc2I)cc1I)c1ccc(-c2ccccc2)c(F)c1 (mixture of isomers) [Prodrug 8, (2S)-2-Amino-3-(4-(4-((2-(2-fluoro-[1,1′-biphenyl]-4-yl)propanoyl)oxy)-3,5-diiodophenoxy)-3,5-diiodophenyl)propanoic acid]",58 ± 20,3.0 ± 0.4

# Tested on: oatp1a4/1a5/1a6
# Assay: Competitive uptake into mouse primary astrocytes in the presence of OATP1A2 inhibitor naringin
# Type: cell-based
# Conditions: 100 μM prodrug, 100 μM NRG, result in words
# Protocol: The competitive uptake in the presence of OATP-inhibitors or competing substrates (100 μM), diclofenac (DFC) and flufenamic acid (FFA), for OATP1C1 and naringin (NRG) for OATP1A2 was carried out as described above with HBSS buffer at pH 7.4 containing 100 μM of the studied compound. The cells were preincubated with the inhibitors for 10 min, and the incubation mixture was removed before adding the studied compound and the inhibitor to the cells. The competitive uptake (30 min) with the inhibitor was then carried out as the normal uptake described above. The concentrations of the studied compounds were analyzed by the HPLC methods described below, calculated from the spiked standard curve, and normalized with the protein concentrations.
# The amount of prodrug 1–8 was determined by the HPLC system, which consisted of an Agilent 1100 binary pump (Agilent Technologies Inc., Wilmington, DE), an 1100 micro vacuum degasser, an HP 1050 Autosampler, and an HP 1050 variable wavelength detector, operated at 230–240 nm. The chromatographic separations were achieved on an Agilent Zorbax SB-C18 analytical column (4.4 mm × 150 mm, 5 μm) (Agilent Technologies Inc., Wilmington, DE) by using isocratic elution of water containing 0.1% formic acid (pH ca. 3.0) and acetonitrile containing 0.1% formic acid with ratios of 50:50, 30:70, 40:60, 50:50, 50:50, 40:60, 40:60, and 30:70 (v/v), respectively, for prodrug 1–8. […] The lower limit of quantification for prodrugs 1–8 was 0.20 μM. These HPLC methods were also accurate, precise, and selective over the range of 0.5–20 μM.
row,SMILES,Cellular uptake in the presence of OATP1A2 inhibitor naringin (NRG)
1,"CC(C(=O)Oc1c(I)cc(Oc2c(I)cc(C[C@H](N)C(=O)O)cc2I)cc1I)c1cccc(C(=O)c2ccccc2)c1 (mixture of isomers) [Prodrug 2, (2S)-2-Amino-3-(4-(4-((2-(3-benzoylphenyl)propanoyl)oxy)-3,5-diiodophenoxy)-3,5-diiodophenyl)propanoic acid]",greatest decrease
2,"COc1ccc2cc([C@H](C)C(=O)Oc3c(I)cc(C[C@H](N)C(=O)O)cc3I)ccc2c1 [Prodrug 5, (S)-2-Amino-3-(3,5-diiodo-4-(((S)-2-(6-methoxynaphthalen-2-yl)propanoyl)oxy)phenyl)propanoic acid]",increased
3,"COc1ccc2cc([C@H](C)C(=O)Oc3c(I)cc(Oc4c(I)cc(C[C@H](N)C(=O)O)cc4I)cc3I)ccc2c1 [Prodrug 6, (S)-2-Amino-3-(4-(3,5-diiodo-4-(((S)-2-(6-methoxynaphthalen-2-yl)propanoyl)oxy)phenoxy)-3,5-diiodophenyl)propanoic acid]",increased

# — publication PMC10683023, “Targeting Glial Cells by Organic Anion-Transporting Polypeptide 1C1 (OATP1C1)-Utilizing L-Thyroxine-Derived Prodrugs” (Journal of Medicinal Chemistry, 2023)
